# Patent US4515951A, “Preparation of 5,6,7,7a-tetrahydro-4H-thieno[3,2-c]pyridin-2-one compounds” (Sanofi, priority 1980, dated 1985)
# Where two headings read alike, the source gives them in different places.
# Tests used:
# [1] = test system: platelet aggregation by collagen; assay: inhibiting action on platelet aggregation by collagen (COLLAGEN TEST), plasma of orally treated rats; type: in vivo, Wistar rats; conditions: Rattus norvegicus, read-out: Percentage inhibition of platelet aggregation (collagen test)
# Experimental: (§1) A sample of blood is taken from the jugular vein of Wistar rats, which have previously been treated with the compound to be tested. From this blood, which is citrate-treated and centrifuged, there is reconstituted a plasma containing 600,000±20,000 platelets per mm^3, which is employed in all the aggregation measurements.
# (§2) 0.4 ml. of plasma is treated in a siliconised tube provided with a bar magnet which is also siliconised. The tube is introduced into an aggregometer connected to an apparatus with which variations in optical density can be recorded. When the light transmission has reached a stable value, 0.5 ml. of a solution containing […] of ADP (adenosine diphosphate)is introduced into the tube.
# (§3) Platelet aggregation then causes an increase in light transmission, followed by a reduction in light transmission due to the subsequent disaggregation stage.
# (§4) The maximum variation in optical density thus determined relative to that of a plasma free of platelets characterises the intensity of aggregation.
# (§5) The measurements are carried out during the 2 hours which follow the taking of the blood sample, this sample being taken 3 hours after treatment with the derivative to be tested.
# The ADP solution is replaced by a solution of collagen (extracted from cattle tendons).
# (§6) Groups of 20 rats were used. Each group received a single dose of the compound to be tested, administered orally, the same compound being administered at different doses ranging from 5 mg./kg. to 100 mg./kg.
# (§7) The results obtained are given in the following Tables II and III, which show the percentage inhibition of platelet aggregation obtained relative to the control experiment, 3 hours after treatment with the compound to be tested.
# [2] = in vivo; conditions: mouse, iv
# Excerpt: This study was concerned with the acute, chronic, sub-chronic and delayed toxicities.
# [3] = test system: platelet aggregation by ADP; assay: inhibiting action on platelet aggregation by ADP (ADP TEST), plasma of orally treated rats; type: in vivo, Wistar rats; conditions: Rattus norvegicus; for inhibition at 5 mg/kg / inhibition at 12.5 mg/kg / inhibition at 25 mg/kg / inhibition at 50 mg/kg / inhibition at 100 mg/kg: read-out: Percentage inhibition of platelet aggregation (ADP test); for minimal effective dose: oral, rats, stated for the aggregation tests (ADP and collagen), read-out: dose at which significant (or similar) platelet aggregation inhibiting activity manifests itself
# Experimental: as §1, §2, §3, §4, §5, §6, §7
# [4] = test system: platelet aggregation induced by ADP; assay: kinetic study of platelet aggregation induced by ADP (Born's nephelometric method, Bryston aggregometer), intraperitoneal; type: in vivo; conditions: rats
# Experimental: A further experiment was carried out, relating to the kinetic study of the compounds of the present invention.
# The blood sample is taken 10 minutes and 60 minutes after this administration and is centrifuged to obtain a plasma enriched in platelets.
# The platelet aggregation in the plasma, induced by ADP is measured in a Bryston aggregometer, using Born's nephelometric method.
# [5] = test system: experimental thrombosis; assay: anti-thrombosis activity, experimental thrombosis caused by extracorporal circulation (Umetsu and Sonoi); type: in vivo, rats; conditions: for Average weight of the thrombi: control (5% gum arabic) 30.41
# Experimental: This activity was studied by the experimental thrombosis method caused by extracorporal circulation, described by Umetsu and Sonoi (Thrombos. Haemost., 39, […]).
# The left jugular vein and the right external carotid are exposed in rats anaesthetised by an intraperitoneal injection of pentobarbital. A shunt is provided which consists of a central catheter and two lateral catheters. A natural white silk thread is introduced into the central part and the circulation is restarted for 20 minutes. After stopping the circulation by clamping, the thread is gently withdrawn and weighed immediately.
# Treatment was carried out for 48 hours, 24 hours and 2 hours before the start of the blood circulation in shunt.
# The test compounds were administered orally to different groups of animals in the form of a suspension in 10 ml. of 5% gum arabic/kg., the doses used being 12.5 mg./kg., 25 mg./kg., 50 mg./kg., 100 mg./kg. and 200 mg./kg.
# [6] = 5 mg/kg oral, single dose, 3 hours after treatment, relative to control
# [7] = 12.5 mg/kg oral, single dose, 3 hours after treatment, relative to control
# [8] = 25 mg/kg oral, single dose, 3 hours after treatment, relative to control
# [9] = 50 mg/kg oral, single dose, 3 hours after treatment, relative to control
# [10] = 100 mg/kg oral, single dose, 3 hours after treatment, relative to control
# [11] = 12.5 mg/kg oral, 48, 24 and 2 hours before
# [12] = 25 mg/kg oral, 48, 24 and 2 hours before
# [13] = 50 mg/kg oral, 48, 24 and 2 hours before
# [14] = 100 mg/kg oral, 48, 24 and 2 hours before
SMILES,"inhibition at 5 mg/kg ([1]; po, 3 h) [%]","inhibition at 12.5 mg/kg ([1]; po, 3 h) [%]","inhibition at 25 mg/kg ([1]; po, 3 h) [%]","inhibition at 50 mg/kg ([1]; po, 3 h) [%]","inhibition at 100 mg/kg ([1]; po, 3 h) [%]",LD50 at 24 h [2] [mg/kg],"inhibition at 5 mg/kg ([3]; po, 3 h) [%]","inhibition at 12.5 mg/kg ([3]; po, 3 h) [%]","inhibition at 25 mg/kg ([3]; po, 3 h) [%]","inhibition at 50 mg/kg ([3]; po, 3 h) [%]","inhibition at 5 mg/kg [1, 6] [%]","inhibition at 12.5 mg/kg [1, 7] [%]","inhibition at 25 mg/kg [1, 8] [%]","inhibition at 50 mg/kg [1, 9] [%]","inhibition at 100 mg/kg [1, 10] [%]","inhibition at 5 mg/kg [3, 6] [%]","inhibition at 12.5 mg/kg [3, 7] [%]","inhibition at 25 mg/kg [3, 8] [%]","inhibition at 50 mg/kg [3, 9] [%]","inhibition at 100 mg/kg [3, 10] [%]",other results
"O=C1C=C2CN(Cc3ccccc3)CCC2S1 (stereo not drawn) [Derivative 2, 5-Benzyl-5,6,7,7a-tetrahydro-4H-thieno[3,2-c]-pyridin-2-one]",16.5,44.2,85.8,87,87.8,116,47.8,82.6,82.9,83.7,,,,,,,,,,,"inhibition at 100 mg/kg ([3]; po, 3 h): 83.7%"
"Clc1ccccc1CN1CCc2sccc2C1 [Reference compound A, 5-(2-chlorobenzyl)-4,5,6,7-tetrahydrothieno[3,2-c]pyridine, reference compound]",,,,,,,,,,,0,0,40.9,46.8,80.1,0,0,0,34.6,63.2,"percentage inhibition as a function of time (platelet aggregation, ADP) ([4]; 10 minutes after 100 mg/kg intraperitoneal in propylene glycol): 22%; percentage inhibition as a function of time (platelet aggregation, ADP) ([4]; 60 minutes after 100 mg/kg intraperitoneal in propylene glycol): 39%; Average weight of the thrombi [5, 11]: 30.45 mg; Average weight of the thrombi [5, 12]: 30.09 mg; Average weight of the thrombi [5, 13]: 28.86 mg; Average weight of the thrombi [5, 14]: 23.04 mg; Average weight of the thrombi ([5]; 200 mg/kg oral, 48, 24 and 2 hours before): 23.13 mg; anti-thrombosis action ([5]; even at high doses): no anti-thrombosis action whatsoever; minimal effective dose ([3]; 3 h): 100 mg/kg"
"N#Cc1ccccc1CN1CCc2sccc2C1 [Reference compound B, 5-(2-cyanobenzyl)-4,5,6,7-tetrahydrothieno[3,2-c]pyridine, reference compound]",,,,,,45,,,,,0,0,38.5,51.2,78.8,0,0,0,35.5,63.8,minimal effective dose ([3]; 3 h): 100 mg/kg
"CCC(c1ccccc1Cl)N1CCC2SC(=O)C=C2C1 (stereo not drawn) [Derivative 6, 5-[1-(2-Chlorophenyl)-propyl]-5,6,7,7a-tetrahydro-4H-thieno[3,2-c]pyridin-2-one]",,,,,,121,,,,,16.8,44.4,85.7,89,89.2,48.7,83,83.4,83.9,83.9,
"N#Cc1ccccc1CN1CCC2SC(=O)C=C2C1 (stereo not drawn) [Derivative 7, 5-(o-Cyanobenzyl)-5,6,7,7a-tetrahydro-4H-thieno[3,2-c]-pyridin-2-one]",,,,,,254,,,,,16.5,44.5,86.2,87.9,89.4,47.6,82.7,82.9,83.1,83.2,
"O=C1C=C2CN(Cc3ccc(Cl)cc3)CCC2S1 (stereo not drawn) [Derivative 3, 5-(p-Chlorobenzyl)-5,6,7,7a-tetrahydro-4H-thieno-[3,2-c]pyridin-2-one]",17.4,44.9,86.5,87.2,88.1,125,48.1,82.4,83,83.5,,,,,,,,,,,"Average weight of the thrombi [5, 11]: 26.72 mg; Average weight of the thrombi [5, 12]: 12.04 mg; Average weight of the thrombi [5, 13]: 5.96 mg; Average weight of the thrombi [5, 14]: 4.62 mg; inhibition at 100 mg/kg ([3]; po, 3 h): 83.6%"
"O=C1C=C2CN(Cc3ccccc3Br)CCC2S1 (stereo not drawn) [Derivative 9, 5-(o-Bromobenzyl)-5,6,7,7a-tetrahydro-4H-thieno[3,2-c]-pyridin-2-one]",17.2,44.9,86.4,87.6,88.6,118,48.4,83.1,83.4,83.7,,,,,,,,,,,"inhibition at 100 mg/kg ([3]; po, 3 h): 84%"
"CC(c1ccccc1Cl)N1CCC2SC(=O)C=C2C1 (stereo not drawn) [Derivative 5, 5-[1-(2-Chlorophenyl)-ethyl]-5,6,7,7a-tetrahydro-4H-thieno[3,2-c]pyridin-2-one]",,,,,,286,,,,,17,44.8,86.1,87.8,88,48.4,82,82.4,83.2,83.5,
"Cc1ccccc1CN1CCC2SC(=O)C=C2C1 (stereo not drawn) [Derivative 4, 5-(o-Methylbenzyl)-5,6,7,7a-tetrahydro-4H-thieno-[3,2-c]pyridin-2-one]",17.1,45.2,85.9,88.1,88.2,110,48,81.9,82.1,82.8,,,,,,,,,,,"inhibition at 100 mg/kg ([3]; po, 3 h): 82.9%"
"O=C1C=C2CN(Cc3ccccc3[N+](=O)[O-])CCC2S1 (stereo not drawn) [Derivative 8, 5-(o-Nitrobenzyl)-5,6,7,7a-tetrahydro-4H-thieno[3,2-c]-pyridin-2-one]",,,,,,278,,,,,17,44.6,86.2,88.2,88.7,48,82.8,83.1,83.3,83.4,
